# In US5358951A, “Angiotensin II receptor blocking 2, 3, 6 substituted quinazolinones” (American Cyanamid Company, priority 1993, dated 1994):
# Test system: vasopressor response of angiotensin II
# Assay: AII Challenge: antagonism of angiotensin II vasopressor response
# Assay type: in vivo
# Conditions: for inhibition in vivo at 3 mg/kg / inhibition in vivo at 5 mg/kg: Rattus norvegicus
# How it was run: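 Percent antagonism is based on the systolic blood pressure rise (mmHg) to i.v. angiotensin II at 0.05 and 0.1 ug/kg. Each rat's own predose response was taken as 100%. Challenges were repeated from 30 to 300 min after i.v., i.p. or oral compound in cannulated conscious male SHR, 16-20 weeks old.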
# [1] = 1 mg/kg P.O., AII 0.05 mcg/kg IV, 60 min post dose
# [2] = 1 mg/kg P.O., AII 0.05 mcg/kg IV, 90 min post dose
# [3] = 1 mg/kg P.O., AII 0.05 mcg/kg IV, 120 min post dose
# [4] = 1 mg/kg P.O., AII 0.05 mcg/kg IV, 180 min post dose
# [5] = 1 mg/kg P.O., AII 0.05 mcg/kg IV, 240 min post dose
# [6] = 1 mg/kg P.O., AII 0.1 mcg/kg IV, 60 min post dose
# [7] = 1 mg/kg P.O., AII 0.1 mcg/kg IV, 90 min post dose
# [8] = 1 mg/kg P.O., AII 0.1 mcg/kg IV, 120 min post dose
# [9] = 1 mg/kg P.O., AII 0.1 mcg/kg IV, 180 min post dose
# [10] = 1 mg/kg P.O., AII 0.1 mcg/kg IV, 240 min post dose
# [11] = 3 mg/kg I.V., AII 0.05 mcg/kg IV, 30 min post dose
# [12] = 3 mg/kg I.V., AII 0.05 mcg/kg IV, 90 min post dose
# [13] = 3 mg/kg I.V., AII 0.05 mcg/kg IV, 120 min post dose
# [14] = 3 mg/kg I.V., AII 0.05 mcg/kg IV, 180 min post dose
# [15] = 3 mg/kg I.V., AII 0.05 mcg/kg IV, 240 min post dose
# [16] = 3 mg/kg I.V., AII 0.1 mcg/kg IV, 30 min post dose
# [17] = 3 mg/kg I.V., AII 0.1 mcg/kg IV, 60 min post dose
# [18] = 3 mg/kg I.V., AII 0.1 mcg/kg IV, 90 min post dose
# [19] = 3 mg/kg I.V., AII 0.1 mcg/kg IV, 120 min post dose
# [20] = 3 mg/kg I.V., AII 0.1 mcg/kg IV, 180 min post dose
# [21] = 3 mg/kg I.V., AII 0.1 mcg/kg IV, 240 min post dose
# [22] = 5 mg/kg P.O., AII 0.05 mcg/kg IV, 60 min post dose
# [23] = 5 mg/kg P.O., AII 0.05 mcg/kg IV, 120 min post dose
# [24] = 5 mg/kg P.O., AII 0.1 mcg/kg IV, 60 min post dose
# [25] = iv, 0.5 h, 3 mg/kg I.V., AII 0.05 mcg/kg IV, 30 min post dose
# [26] = iv, 0.5 h, 3 mg/kg I.V., AII 0.1 mcg/kg IV, 30 min post dose
# [27] = iv, 1 h, 3 mg/kg I.V., AII 0.1 mcg/kg IV, 60 min post dose
# [28] = iv, 2 h, 3 mg/kg I.V., AII 0.1 mcg/kg IV, 120 min post dose
# [29] = iv, 3 h, 3 mg/kg I.V., AII 0.05 mcg/kg IV, 180 min post dose
# [30] = iv, 3 h, 3 mg/kg I.V., AII 0.1 mcg/kg IV, 180 min post dose
# [31] = iv, 4 h, 3 mg/kg I.V., AII 0.05 mcg/kg IV, 240 min post dose
# [32] = iv, 4 h, 3 mg/kg I.V., AII 0.1 mcg/kg IV, 240 min post dose
# [33] = iv, […], 3 mg/kg I.V., AII 0.05 mcg/kg IV, 90 min post dose
# [34] = iv, […], 3 mg/kg I.V., AII 0.1 mcg/kg IV, 90 min post dose
# [35] = po, 0.5 h, 5 mg/kg P.O., AII 0.05 mcg/kg IV, 30 min post dose
# [36] = po, 1 h, 5 mg/kg P.O., AII 0.05 mcg/kg IV, 60 min post dose
# [37] = po, 1 h, 5 mg/kg P.O., AII 0.1 mcg/kg IV, 60 min post dose
# [38] = po, 2 h, 5 mg/kg P.O., AII 0.05 mcg/kg IV, 120 min post dose
# [39] = po, 3 h, 5 mg/kg P.O., AII 0.05 mcg/kg IV, 180 min post dose
# [40] = po, 3 h, 5 mg/kg P.O., AII 0.1 mcg/kg IV, 180 min post dose
# [41] = po, […], 5 mg/kg P.O., AII 0.05 mcg/kg IV, 90 min post dose
# [42] = po, […], 5 mg/kg P.O., AII 0.1 mcg/kg IV, 90 min post dose
smiles,measurement,setting,value
"CCCCc1nc2ccc([C@@]3(C)C[C@@H]4CCCN4O3)cc2c(=O)n1Cc1ccc(-c2ccccc2-c2nnn[nH]2)cc1 (relative stereo) [Example 58, Cis-(+/-)-2-Butyl-6-(hexahydro-2-methylpyrrolo[1,2-1,2-b]isoxazol-2-yl) -3-[[2'-(1H-tetrazol-5-yl) [1,1'-biphenyl]-4-yl]methyl]-4(3H)-quinazolinone]",% Inhibition,[1],62%
same,Response Average Change,[1],16 mmHg
same,% Inhibition,[2],68%
same,Response Average Change,[2],13.5 mmHg
same,% Inhibition,[3],67%
same,Response Average Change,[3],14 mmHg
same,% Inhibition,[4],82%
same,Response Average Change,[4],7.5 mmHg
same,% Inhibition,[5],82%
same,Response Average Change,[5],7.5 mmHg
same,% Inhibition,[6],37%
same,Response Average Change,[6],30 mmHg
same,% Inhibition,[7],44%
same,Response Average Change,[7],26.5 mmHg
same,% Inhibition,[8],53%
same,Response Average Change,[8],22.5 mmHg
same,% Inhibition,[9],56%
same,Response Average Change,[9],21 mmHg
same,% Inhibition,[10],68%
same,Response Average Change,[10],15 mmHg
same,Response Average Change,[11],0 mmHg
same,Response Average Change,"3 mg/kg I.V., AII 0.05 mcg/kg IV, 60 min post dose",5 mmHg
same,Response Average Change,[12],2.5 mmHg
same,Response Average Change,[13],5 mmHg
same,Response Average Change,[14],6.5 mmHg
same,Response Average Change,[15],7.5 mmHg
same,Response Average Change,[16],10 mmHg
same,Response Average Change,[17],4 mmHg
same,Response Average Change,[18],2.5 mmHg
same,Response Average Change,[19],10 mmHg
same,Response Average Change,[20],6.5 mmHg
same,Response Average Change,[21],4 mmHg
same,% Inhibition,[22],94%
same,Response Average Change,[22],2.5 mmHg
same,Response Average Change,[23],5 mmHg
same,Response Average Change,"5 mg/kg P.O., AII 0.05 mcg/kg IV, 300 min post dose",1 mmHg
same,% Inhibition,[24],100%
same,Response Average Change,[24],0 mmHg
same,inhibition in vivo at 3 mg/kg,[25],100%
same,inhibition in vivo at 3 mg/kg,[26],78%
same,inhibition in vivo at 3 mg/kg,[27],91%
same,inhibition in vivo at 3 mg/kg,[28],78%
same,inhibition in vivo at 3 mg/kg,[29],83%
same,inhibition in vivo at 3 mg/kg,[30],86%
same,inhibition in vivo at 3 mg/kg,[31],81%
same,inhibition in vivo at 3 mg/kg,[32],91%
same,inhibition in vivo at 3 mg/kg,[33],94%
same,inhibition in vivo at 3 mg/kg,[34],94%
same,inhibition in vivo at 3 mg/kg,"po, 0.5 h, 3 mg/kg P.O., AII 0.05 mcg/kg IV, 30 min post dose",75%
same,inhibition in vivo at 5 mg/kg,[35],90%
same,inhibition in vivo at 3 mg/kg,"po, 1 h, 3 mg/kg P.O., AII 0.05 mcg/kg IV, 60 min post dose",92%
same,inhibition in vivo at 3 mg/kg,"po, 1 h, 3 mg/kg P.O., AII 0.1 mcg/kg IV, 60 min post dose",67%
same,inhibition in vivo at 5 mg/kg,[36],94%
same,inhibition in vivo at 5 mg/kg,[37],100%
same,inhibition in vivo at 3 mg/kg,"po, 2 h, 3 mg/kg P.O., AII 0.05 mcg/kg IV, 120 min post dose",67%
same,inhibition in vivo at 3 mg/kg,"po, 2 h, 3 mg/kg P.O., AII 0.1 mcg/kg IV, 120 min post dose",91%
same,inhibition in vivo at 5 mg/kg,[38],88%
same,inhibition in vivo at 3 mg/kg,"po, 3 h, 3 mg/kg P.O., AII 0.05 mcg/kg IV, 180 min post dose",75%
same,inhibition in vivo at 3 mg/kg,"po, 3 h, 3 mg/kg P.O., AII 0.1 mcg/kg IV, 180 min post dose",74%
same,inhibition in vivo at 5 mg/kg,[39],75%
same,inhibition in vivo at 5 mg/kg,[40],89%
same,inhibition in vivo at 5 mg/kg,"po, 4 h, 5 mg/kg P.O., AII 0.05 mcg/kg IV, 240 min post dose",93%
same,inhibition in vivo at 3 mg/kg,"po, 5 h, 3 mg/kg P.O., AII 0.05 mcg/kg IV, 300 min post dose",57%
same,inhibition in vivo at 5 mg/kg,"po, 5 h, 5 mg/kg P.O., AII 0.05 mcg/kg IV, 300 min post dose",98%
same,inhibition in vivo at 5 mg/kg,"po, 5 h, 5 mg/kg P.O., AII 0.1 mcg/kg IV, 300 min post dose",84%
same,inhibition in vivo at 3 mg/kg,"po, […], 3 mg/kg P.O., AII 0.05 mcg/kg IV, 90 min post dose",75%
same,inhibition in vivo at 5 mg/kg,[41],88%
same,inhibition in vivo at 5 mg/kg,[42],84%
"CCCCc1nc2ccc([C@@H]3C[C@H]4c5ccccc5CCN4O3)cc2c(=O)n1Cc1ccc(-c2ccccc2-c2nnn[nH]2)cc1 (relative stereo) [Example 63, Cis-2-Butyl-6-(1,5,6,10b-tetrahydro-2H-isoxazolo[3,2-a]isoquinolin-2-yl)-3-[[2'-(1H-tetrazol5-yl)[1,1'-biphenyl]-4-yl]methyl]-4(3H)-quinazolinone]",Response Average Change,[11],10.5 mmHg
same,Response Average Change,[12],10 mmHg
same,Response Average Change,[13],10 mmHg
same,Response Average Change,[14],17.5 mmHg
same,Response Average Change,[15],12.5 mmHg
same,Response Average Change,"3 mg/kg I.V., AII 0.05 mcg/kg IV, 300 min post dose",23.5 mmHg
same,Response Average Change,[16],10 mmHg
same,Response Average Change,[17],15 mmHg
same,Response Average Change,[18],17.5 mmHg
same,Response Average Change,[19],17.5 mmHg
same,Response Average Change,[20],22.5 mmHg
same,Response Average Change,[21],23 mmHg
same,Response Average Change,"3 mg/kg I.V., AII 0.1 mcg/kg IV, 300 min post dose",25 mmHg
same,Response Average Change,"3 mg/kg I.V., AII 0.5 mcg/kg IV, 60 min post dose",10 mmHg
same,Response Average Change,"5 mg/kg P.O., AII 0.05 mcg/kg IV, 30 min post dose",22.5 mmHg
same,Response Average Change,[22],30 mmHg
same,Response Average Change,"5 mg/kg P.O., AII 0.05 mcg/kg IV, 90 min post dose",20 mmHg
same,Response Average Change,[23],16.5 mmHg
same,Response Average Change,"5 mg/kg P.O., AII 0.05 mcg/kg IV, 180 min post dose",20 mmHg
same,Response Average Change,"5 mg/kg P.O., AII 0.1 mcg/kg IV, 30 min post dose",35 mmHg
same,Response Average Change,[24],42.5 mmHg
same,Response Average Change,"5 mg/kg P.O., AII 0.1 mcg/kg IV, 90 min post dose",34 mmHg
same,Response Average Change,"5 mg/kg P.O., AII 0.1 mcg/kg IV, 120 min post dose",32.5 mmHg
same,Response Average Change,"5 mg/kg P.O., AII 0.1 mcg/kg IV, 180 min post dose",24 mmHg
same,inhibition in vivo at 3 mg/kg,[25],70%
same,inhibition in vivo at 3 mg/kg,[26],73%
same,inhibition in vivo at 3 mg/kg,[27],60%
same,inhibition in vivo at 3 mg/kg,"iv, 1 h, 3 mg/kg I.V., AII 0.5 mcg/kg IV, 60 min post dose",71%
same,inhibition in vivo at 3 mg/kg,"iv, 2 h, 3 mg/kg I.V., AII 0.05 mcg/kg IV, 120 min post dose",71%
same,inhibition in vivo at 3 mg/kg,[28],53%
same,inhibition in vivo at 3 mg/kg,[29],50%
same,inhibition in vivo at 3 mg/kg,[30],40%
same,inhibition in vivo at 3 mg/kg,[31],64%
same,inhibition in vivo at 3 mg/kg,[32],39%
same,inhibition in vivo at 3 mg/kg,"iv, 5 h, 3 mg/kg I.V., AII 0.05 mcg/kg IV, 300 min post dose",33%
same,inhibition in vivo at 3 mg/kg,"iv, 5 h, 3 mg/kg I.V., AII 0.1 mcg/kg IV, 300 min post dose",33%
same,inhibition in vivo at 3 mg/kg,[33],71%
same,inhibition in vivo at 3 mg/kg,[34],53%
same,inhibition in vivo at 5 mg/kg,[35],49%
same,inhibition in vivo at 5 mg/kg,"po, 0.5 h, 5 mg/kg P.O., AII 0.1 mcg/kg IV, 30 min post dose",18%
same,inhibition in vivo at 5 mg/kg,[36],32%
same,inhibition in vivo at 5 mg/kg,[37],0%
same,inhibition in vivo at 5 mg/kg,[38],63%
same,inhibition in vivo at 5 mg/kg,"po, 2 h, 5 mg/kg P.O., AII 0.1 mcg/kg IV, 120 min post dose",24%
same,inhibition in vivo at 5 mg/kg,[39],55%
same,inhibition in vivo at 5 mg/kg,[40],44%
same,inhibition in vivo at 5 mg/kg,[41],55%
same,inhibition in vivo at 5 mg/kg,[42],20%
